{
  "source": "patent US7807720B2",
  "about": "(priority 2007, dated 2010)",
  "data": [
    {"target": "Bacillus anthracis lethal factor protease (Bacillus anthracis, UniProt P15917)", "sequence (P15917 34-809 limits assumed)": "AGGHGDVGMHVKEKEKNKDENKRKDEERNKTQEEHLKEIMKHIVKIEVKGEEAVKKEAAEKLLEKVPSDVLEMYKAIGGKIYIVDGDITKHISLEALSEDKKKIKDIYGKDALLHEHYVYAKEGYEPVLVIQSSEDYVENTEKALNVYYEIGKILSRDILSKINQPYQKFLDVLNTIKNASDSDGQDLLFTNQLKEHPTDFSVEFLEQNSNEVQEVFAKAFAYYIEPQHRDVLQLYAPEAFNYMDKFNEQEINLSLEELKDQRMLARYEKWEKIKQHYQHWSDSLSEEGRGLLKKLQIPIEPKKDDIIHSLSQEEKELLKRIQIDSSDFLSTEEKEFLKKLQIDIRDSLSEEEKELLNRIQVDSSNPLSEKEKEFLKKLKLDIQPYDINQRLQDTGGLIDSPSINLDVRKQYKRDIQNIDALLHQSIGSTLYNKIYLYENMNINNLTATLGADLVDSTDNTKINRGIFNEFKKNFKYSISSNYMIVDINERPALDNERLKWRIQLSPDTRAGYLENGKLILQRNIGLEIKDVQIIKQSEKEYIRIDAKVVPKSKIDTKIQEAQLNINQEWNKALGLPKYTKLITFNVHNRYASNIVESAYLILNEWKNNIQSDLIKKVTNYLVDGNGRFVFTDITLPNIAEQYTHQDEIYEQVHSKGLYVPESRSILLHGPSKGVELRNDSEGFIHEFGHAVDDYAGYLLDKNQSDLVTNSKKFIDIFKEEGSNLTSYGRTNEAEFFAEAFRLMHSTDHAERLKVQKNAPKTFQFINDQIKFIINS", "assay": "biochemical", "units": {"Ki": "nM"}, "values": [
      {"smiles": "Cc1cc(C[C@@H](CCC/C=C/C(C)C)C(=O)NO)cc(C)c1F", "note": "[Compound 168051, (R)-2-(4-Fluoro-3,5-dimethyl-benzyl)-8-methyl-non-6-enoic acid hydroxyamide]", "Ki": 51600},
      {"smiles": "Cc1ccc(CNCCCC[C@@H](Cc2cc(C)c(F)c(C)c2)C(=O)NO)o1", "note": "[Compound 168157, (S)-2-(4-Fluoro-3,5-dimethyl-benzyl)-6-[(5-methyl-furan-2-ylmethyl)-amino]-hexanoic acid hydroxyamide]", "Ki": 130},
      {"smiles": "Cc1cc(C[C@H](CCCCNCC2CCCCC2)C(=O)NO)cc(C)c1F", "note": "[Compound 168170, (S)-6-(Cyclohexylmethyl-amino)-2-(4-fluoro-3,5-dimethyl-benzyl)-hexanoic acid hydroxyamide]", "Ki": 400},
      {"smiles": "Cc1cc(CC(C#N)C(=O)NO)cc(C)c1F", "note": "(centres unmarked) [Compound 167914, 2-Cyano-3-(4-fluoro-3,5-dimethyl-phenyl)-N-hydroxy-propionamide]", "Ki": 47500},
      {"smiles": "Cc1cc(C[C@H](CCCCNCc2cccc(-c3ccccc3)c2)C(=O)NO)ccc1F", "note": "[Compound 168140, (S)-6-[(Biphenyl-3-ylmethyl)-amino]-2-(4-fluoro-3-methyl-benzyl)-hexanoic acid hydroxyamide]", "Ki": 700},
      {"smiles": "Cc1cc(C[C@H](CCCCNCCCc2ccc(F)cc2)C(=O)NO)cc(C)c1F", "note": "[Compound 168123, (S)-2-(4-Fluoro-3,5-dimethyl-benzyl)-6-[3-(4-fluoro-phenyl)-propylamino]-hexanoic acid hydroxyamide]", "Ki": 47},
      {"smiles": "CCCCC(Cc1ccc(F)c(C)c1)C(=O)NO", "note": "(centres unmarked) [Compound 167266, 2-(4-Fluoro-3-methyl-benzyl)-hexanoic acid hydroxyamide]", "Ki": 2300},
      {"smiles": "Cc1cc(CCCCCC[C@@H](Cc2ccc(Cl)cc2)C(=O)NO)ccc1F", "note": "[Compound 168134, (S)-2-(4-Chloro-benzyl)-8-(4-fluoro-3-methyl-phenyl)-octanoic acid hydroxyamide]", "Ki": 64500},
      {"smiles": "Cc1cc(C[C@H](CCCCNCc2cc3ccccc3s2)C(=O)NO)cc(C)c1F", "note": "[Compound 168180, (S)-6-[(Benzo[b]thiophen-2-ylmethyl)-amino]-2-(4-fluoro-3,5-dimethyl-benzyl)-hexanoic acid hydroxyamide]", "Ki": 400},
      {"smiles": "O=C(NO)[C@@H](CCCCNCc1ccc(F)cc1)Cc1ccc(F)c(Cl)c1", "note": "[Compound 168164, (S)-2-(3-Chloro-4-fluoro-benzyl)-6-(4-fluoro-benzylamino)-hexanoic acid hydroxyamide]", "Ki": 200},
      {"smiles": "Cc1cc(C[C@@H](CCCCCC(C)C)C(=O)NO)cc(C)c1F", "note": "[Compound 168052, (R)-2-(4-Fluoro-3,5-dimethyl-benzyl)-8-methyl-nonanoic acid hydroxyamide]", "Ki": 300000},
      {"smiles": "Cc1cc(CC(C(=O)NO)c2ccc(Br)cc2)cc(C)c1F", "note": "(centres unmarked) [Compound 167856, 2-(4-Bromo-phenyl)-3-(4-fluoro-3,5-dimethyl-phenyl)-N-hydroxy-propionamide]", "Ki": 620},
      {"smiles": "Cc1cc(CC(CCN(C)CCCc2ccc(F)cc2)C(=O)NO)cc(C)c1F", "note": "(stereo in doubt) [Compound 168172, (S)-2-(4-Fluoro-3,5-dimethyl-benzyl)-4-{[3-(4-fluoro-phenyl)-propyl]-methyl-amino}-N-hydroxy-butyramide]", "Ki": 290},
      {"smiles": "Cc1cc(CC(C)C(=O)NO)cc(C)c1F", "note": "(centres unmarked) [Compound 167858, 2-(4-fluoro-3,5-dimethylbenzyl)-N-hydroxypropanamide]", "Ki": 400},
      {"smiles": "Cc1cc(C[C@H](CCC/C=C/C(C)C)C(=O)NO)cc(C)c1F", "note": "[Compound 168023, (S)-2-(4-Fluoro-3,5-dimethyl-benzyl)-8-methyl-non-6-enoic acid hydroxyamide]", "Ki": 1970},
      {"smiles": "Cc1cc(C[C@H](CCCCNCCc2ccc(F)cc2)C(=O)NO)cc(C)c1F", "note": "[Compound 168122, (S)-2-(4-Fluoro-3,5-dimethyl-benzyl)-6-[2-(4-fluoro-phenyl)-ethylamino]-hexanoic acid hydroxyamide]", "Ki": 65},
      {"smiles": "Cc1cc(C[C@@H](C(=O)NO)c2ccc(Br)cc2)cc(C)c1F", "note": "[Compound 168009, (R)-2-(4-Bromo-phenyl)-3-(4-fluoro-3,5-dimethyl-phenyl)-N-hydroxy-propionamide]", "Ki": 770},
      {"smiles": "Cc1cc(C[C@H](CCCCNCc2ccccc2)C(=O)NO)cc(C)c1F", "note": "[Compound 168149, (S)-6-Benzylamino-2-(4-fluoro-3,5-dimethyl-benzyl)-hexanoic acid hydroxyamide]", "Ki": 130},
      {"smiles": "Cc1cc(CCCCCC[C@@H](Cc2cc(C)c(F)c(C)c2)C(=O)NO)ccc1F", "note": "[Compound 168124, (S)-2-(4-Fluoro-3,5-dimethyl-benzyl)-8-(4-fluoro-3-methyl-phenyl)-octanoic acid hydroxyamide]", "Ki": 10300},
      {"smiles": "CCCCC(Cc1cc(C)c(F)c(C)c1)C(=O)NO", "note": "(centres unmarked) [Compound 167533, 2-(4-Fluoro-3,5-dimethyl-benzyl)-hexanoic acid hydroxyamide]", "Ki": 1200},
      {"smiles": "Cc1cc(CNCCCC[C@@H](Cc2cc(C)c(F)c(C)c2)C(=O)NO)ccc1F", "note": "[Compound 168050, (S)-2-(4-Fluoro-3,5-dimethyl-benzyl)-6-(4-fluoro-3-methyl-benzylamino)-hexanoic acid hydroxyamide]", "Ki": 74},
      {"smiles": "Cc1cc(CNCCCC[C@@H](Cc2ccc(F)c(C)c2)C(=O)NO)ccc1F", "note": "[Compound 168139, (S)-2-(4-Fluoro-3-methyl-benzyl)-6-(4-fluoro-3-methyl-benzylamino)-hexanoic acid hydroxyamide]", "Ki": 280},
      {"smiles": "Cc1cc(C[C@H](CCCCNCc2cnccn2)C(=O)NO)cc(C)c1F", "note": "[Compound 168179, (S)-2-(4-Fluoro-3,5-dimethyl-benzyl)-6-[(pyrazin-2-ylmethyl)-amino]-hexanoic acid hydroxyamide]", "Ki": 710},
      {"smiles": "Cc1cc(CCCN(C)CC[C@@H](Cc2ccc(Cl)cc2)C(=O)NO)ccc1F", "note": "[Compound 168150, 2R-(4-Chloro-benzyl)-4-{[3-(4-fluoro-3-methyl-phenyl)-propyl]-methyl-amino}-N-hydroxy-butyramide]", "Ki": 1750},
      {"smiles": "Cc1cc(C[C@H](C(=O)NO)c2ccc(Br)cc2)cc(C)c1F", "note": "[Compound 167973, (S)-2-(4-Bromo-phenyl)-3-(4-fluoro-3,5-dimethyl-phenyl)-N-hydroxy-propionamide]", "Ki": 5700},
      {"smiles": "Cc1cc(C[C@H](CCCCNc2ccc(F)cc2)C(=O)NO)cc(C)c1F", "note": "[Compound 168132, (S)-2-(4-Fluoro-3,5-dimethyl-benzyl)-6-(4-fluoro-phenylamino)-hexanoic acid hydroxyamide]", "Ki": 2240},
      {"smiles": "CCCC[C@@H](Cc1ccccc1)C(=O)NO", "note": "(stereo in doubt) [Compound 167550, 2-Benzyl-hexanoic acid hydroxyamide]", "Ki": 65200},
      {"smiles": "Cc1cc(CCC(=O)NO)cc(C)c1F", "note": "[Compound 167857, 3-(4-Fluoro-3,5-dimethyl-phenyl)-N-hydroxy-propionamide]", "Ki": 1340},
      {"smiles": "Cc1cc(C[C@H](CCCCNCc2ccc(Cl)cc2)C(=O)NO)cc(C)c1F", "note": "[Compound 168125, (S)-6-(4-Chloro-benzylamino)-2-(4-fluoro-3,5-dimethyl-benzyl)-hexanoic acid hydroxyamide]", "Ki": 190},
      {"smiles": "Cc1cc(C[C@H](CCCCCC(C)C)C(=O)NO)cc(C)c1F", "note": "[Compound 168031, (S)-2-(4-Fluoro-3,5-dimethyl-benzyl)-8-methyl-nonanoic acid hydroxyamide]", "Ki": 2660},
      {"smiles": "CCC(CC)CNCCCC[C@@H](Cc1cc(C)c(F)c(C)c1)C(=O)NO", "note": "[Compound 168171, (S)-6-(2-Ethyl-butylamino)-2-(4-fluoro-3,5-dimethyl-benzyl)-hexanoic acid hydroxyamide]", "Ki": 250},
      {"smiles": "Cc1cc(COCCCC[C@@H](Cc2cc(C)c(F)c(C)c2)C(=O)NO)ccc1F", "note": "[Compound 168141, (S)-2-(4-fluoro-3,5-dimethylbenzyl)-6-(4-fluoro-3-methylbenzyloxy)-N-hydroxyhexanamide]", "Ki": 3600},
      {"smiles": "Cc1cc(C[C@H](CCCCN(C)Cc2ccc(F)cc2)C(=O)NO)cc(C)c1F", "note": "[Compound 168126, (S)-6-[(4-Fluoro-benzyl)-methyl-amino]-2-(4-fluoro-3,5-dimethyl-benzyl)-hexanoic acid hydroxyamide]", "Ki": 550},
      {"smiles": "Cc1cc(C[C@H](CCCCNCc2ccc3c(c2)OCO3)C(=O)NO)cc(C)c1F", "note": "[Compound 168148, (S)-6-[(Benzo[1,3]dioxol-5-ylmethyl)-amino]-2-(4-fluoro-3,5-dimethyl-benzyl)-hexanoic acid hydroxyamide]", "Ki": 220},
      {"smiles": "Cc1cc(CCCN(C)CC[C@@H](Cc2ccc(Cl)cc2)C(=O)NO)cc(C)c1F", "note": "[Compound 168156, 2R-(4-Chloro-benzyl)-4-{[3-(4-fluoro-3,5-dimethyl-phenyl)-propyl]-methyl-amino}-N-hydroxy-butyramide]", "Ki": 3290}
    ]}
  ]
}
